This is an account of results in article PMC7536072, “Molecular and functional characterization of somatostatin-type signalling in a deuterostome invertebrate” (Open Biology, 2020).

One assay concerns ArSSR3. The assay can be described thus: GFP-aequorin luminescence receptor activation assay, CHO-K1 cells, ArSSR3 + Gα16. It counts as cell-based, Asterias rubens.
In assay [1] the test system is apical muscle preparations from A. rubens. The assay can be described thus: in vitro contractility of apical muscle preparations. Further details: species or system Asterias rubens. The following applies: data not shown. How it is done:
Synthetic ArSS2 ([…], with a disulfide bridge between the cysteine residues) was custom synthesized (Peptide Protein Research Ltd, Fareham, UK) to enable testing of its pharmacological effects on in vitro preparations of organs/muscles from A. rubens. ArSS2 was tested for its in vitro effects on the contractility of tube foot, apical muscle and cardiac stomach preparations from at least six different specimens of A. rubens. Individual tube foot preparations were dissected from starfish arms with their corresponding ampulla intact. Then cotton ligatures were tied around the ambulacral body wall and the tube foot disc and then the external epithelium of the tube foot was scraped off using a blunt scalpel blade to facilitate penetration of peptides when tested in vitro, as described previously. Apical muscle preparations were dissected from the aboral body wall with approximately 1 cm strips of apical muscle tied at each end with cotton ligatures. Cardiac stomach preparations were dissected as described previously and then were tied at the aboral side of the cardiac stomach and around the oesophagus with cotton ligatures. […] Data collected from PowerLab were visualized as traces and analysed using LabChart (v. 8.0.7) software installed on a laptop computer (Lenovo E540, Windows 7 Professional). […]

A further assay concerns ArSSR1. The assay can be described thus: GFP-aequorin luminescence receptor activation assay, CHO-K1 cells, ArSSR1 + Gα16. It counts as cell-based, Asterias rubens.
Assay [2] deals with cardiac stomach of A. rubens. Kind of assay: in vivo cardiac stomach eversion after injection into the perivisceral coelom. Also on record: species or system Asterias rubens. The following applies: n = 10. How it is done:
When starfish (A. rubens) feed, the cardiac stomach is relaxed and everted out of the mouth over the digestible soft tissues of prey (e.g. mussels). […] Therefore, because ArSS2 causes relaxation of cardiac stomach preparations in vitro, we investigated if ArSS2 also triggers cardiac stomach eversion when injected in vivo. Firstly, 15 medium-sized starfish were starved for one week to normalize their physiological status. A Hamilton […] 50 μl syringe (Sigma-Aldrich; Gillingham, UK) was used to inject 10 μl 1 mM ArSS2, or 10 μl 1 mM asterotocin (positive control) or 10 μl water (negative control) into the […] coelom of starfish. ArSS2 was tested on five individuals firstly and then the next day, asterotocin was tested on the same batch of five individuals. For another five individuals, asterotocin was tested first and then ArSS2 was tested on the following day. The remaining five individuals were injected with water as a control. Thus, both ArSS2 and asterotocin were tested on ten starfish. For each starfish, the test agent was injected via two sites in the dorsal body wall of the arms proximal to the junctions with the central disc region. Care was taken to inject test agents into the […] coelom and not into the cardiac stomach.

Assay [3] relates to cardiac stomach preparations from A. rubens. The assay can be described thus: in vitro relaxation of cardiac stomach preparations. Also on record: species or system Asterias rubens. As for the experimental part:
Synthetic ArSS2 ([…], with a disulfide bridge between the cysteine residues) was custom synthesized (Peptide Protein Research Ltd, Fareham, UK) to enable testing of its pharmacological effects on in vitro preparations of organs/muscles from A. rubens. ArSS2 was tested for its in vitro effects on the contractility of tube foot, apical muscle and cardiac stomach preparations from at least six different specimens of A. rubens. Individual tube foot preparations were dissected from starfish arms with their corresponding ampulla intact. Then cotton ligatures were tied around the ambulacral body wall and the tube foot disc and then the external epithelium of the tube foot was scraped off using a blunt scalpel blade to facilitate penetration of peptides when tested in vitro, as described previously. Apical muscle preparations were dissected from the aboral body wall with approximately 1 cm strips of apical muscle tied at each end with cotton ligatures. Cardiac stomach preparations were dissected as described previously and then were tied at the aboral side of the cardiac stomach and around the oesophagus with cotton ligatures. The dissected preparations were tied to a fixed metal hook orally and to a high-grade isotonic transducer (MLT0015; ADInstruments Ltd; Oxford, UK) aborally, suspended in a 20 ml aerated organ bath containing artificial seawater at approximately 11°C. The transducer was connected via a bridge amplifier (FE221 Bridge Amp, ADInstruments Ltd, Oxford, UK) to data acquisition hardware (PowerLab 2/36, ADInstruments Ltd, Oxford, UK). Data collected from PowerLab were visualized as traces and analysed using LabChart (v. 8.0.7) software installed on a laptop computer (Lenovo E540, Windows 7 Professional).
(§1) To examine the effects of ArSS2 on tube foot and cardiac stomach preparations, 10^−6 M acetylcholine (ACh) or artificial seawater (ASW) containing 30 mM added KCl was used to induce contraction of these preparations, respectively. Once a stable baseline contracted state was achieved, synthetic ArSS2 was added into the organ bath to sequentially achieve final concentrations in the range of 10^−10 to 10^−6 M. For these experiments, the contracting effect of 10^−6 M ACh or ASW containing 30 mM added KCl was defined as 100% and the relaxing effects of ArSS2 were then calculated as a percentage reversal of the 100% contracted state.
Experiments were performed where the effects of ArSS2, S2 and asterotocin (at 10^−7 and 10^−6 M) on cardiac stomach preparations (n = 6) were compared. For these experiments, the effect of 10^−7 or 10^−6 M S2 was defined as 100% and the effect of asterotocin or ArSS2 was calculated as a % of the effect of S2. To determine if there were significant differences in magnitude of the relaxing effects of the three peptides on cardiac stomach preparations, data were analysed statistically using a two-tailed Student's t-test in Prism 6.

Assay [4] concerns tube foot preparations from A. rubens. The assay can be described thus: in vitro relaxation of tube foot preparations. Further details: species or system Asterias rubens. How it is done: Synthetic ArSS2 ([…], with a disulfide bridge between the cysteine residues) was custom synthesized (Peptide Protein Research Ltd, Fareham, UK) to enable testing of its pharmacological effects on in vitro preparations of organs/muscles from A. rubens. ArSS2 was tested for its in vitro effects on the contractility of tube foot, apical muscle and cardiac stomach preparations from at least six different specimens of A. rubens. Individual tube foot preparations were dissected from starfish arms with their corresponding ampulla intact. […] Data collected from PowerLab were visualized as traces and analysed using LabChart (v. 8.0.7) software installed on a laptop computer (Lenovo E540, Windows 7 Professional). […]
as §1

The mark [5] stands for this setting: 10 µl 10^−3 M into perivisceral coelom.
The mark [6] stands for this setting: 10^−7 M, KCl-contracted, mean, n = 6.

Entries after “also recorded” stand apart in the source; their conditions may differ. Bridges are numbered along the chain shown (N, C = ends). Where no end group is shown, it is not given here.

Chain of ArSSR3 (as listed by the source): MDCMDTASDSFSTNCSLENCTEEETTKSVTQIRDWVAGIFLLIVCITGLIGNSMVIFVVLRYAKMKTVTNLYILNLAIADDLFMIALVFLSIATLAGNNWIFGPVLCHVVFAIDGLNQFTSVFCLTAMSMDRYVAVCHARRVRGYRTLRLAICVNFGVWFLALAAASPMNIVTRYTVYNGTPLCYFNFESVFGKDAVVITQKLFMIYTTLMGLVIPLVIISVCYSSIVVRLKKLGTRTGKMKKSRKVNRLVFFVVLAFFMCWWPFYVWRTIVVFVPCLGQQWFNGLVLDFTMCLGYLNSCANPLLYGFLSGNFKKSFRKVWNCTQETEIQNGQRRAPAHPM

In the case of “RAKNARCMADFWKGRGLVDC (disulfide 7-20 (inferred)) [ArSS2]”, the EC50 with ArSSR3 (ArSSR3 + Gα16 in CHO-K1 cells expressing GFP-aequorin (G5A), peptide 10^−21 to 10^−4 M, luminescence over 35 s, mean of at least three independent experiments, three repeats each, read-out: half-maximal response concentration (EC50)) is 1400 pM; with ArSSR1 (ArSSR1 + Gα16 in CHO-K1 cells expressing GFP-aequorin (G5A), peptide 10^−21 to 10^−4 M, luminescence over 35 s, mean of at least three independent experiments, three repeats each, read-out: half-maximal response concentration (EC50)), 88 pM. In the assay with ArSSR3 (ArSSR3, 10^−5 M, background detected with assay media or with ArSS1), the “mean total luminescence response relative to background” value is 46 575 times the background luminescence. Further, the “luminescence compared with control” value in the assay on ArSSR3 (ArSSR3, 10^−5 M, vs BSA media (control) and, for ArSS2, vs ArSS1, one-way ANOVA, Bonferroni) is recorded as “significantly higher than the luminescence in cells exposed to ArSS1 or BSA media (control)”; in the assay on ArSSR1 (ArSSR1, 10^−5 M, vs BSA media (control) and, for ArSS2, vs ArSS1, one-way ANOVA, Bonferroni) it was “significantly higher than the luminescence in cells exposed to ArSS1 or BSA media (control)”. The triggering of luminescence entry in the assay with ArSSR3 (ArSSR3, 10^−21 to 10^−4 M) is reported as “caused dose-dependent luminescence”; in the assay with ArSSR1 (ArSSR1, 10^−21 to 10^−4 M), “caused dose-dependent luminescence”. The “effect on contractility of apical muscle preparations” value in assay [1] is reported as “did not cause relaxation; also recorded: no observable effects”. Moreover, in the assay on ArSSR1 (ArSSR1 and ArSSR2 vs ArSSR3, 10^−5 M), the “efficacy compared between receptors” value is “higher for ArSSR1 and ArSSR2 than for ArSSR3”. In addition, the “mean maximal eversion, area of everted cardiac stomach” value in assay [2] (10 µl 10^−3 M into perivisceral coelom, 10 min recording) was “approximately 10 % of the area of the central disc region”. Besides, in assay [2] (setting [5]), the “incidence of cardiac stomach eversion” value is on record as “all of the animals”. Besides, the “time of mean maximal eversion after injection” value in assay [2] (setting [5]) is given as “approximately 4 min”. In assay [2] (10 µl 10^−3 M), the “magnitude of cardiac stomach eversion compared with asterotocin” value is given as “much less than that induced by asterotocin”. Moreover, in assay [3] (10^−6 M), the “extent of relaxation of cardiac stomach preparations” value is “maximal relaxation”. The “magnitude of cardiac stomach relaxing action compared with S2” value in assay [3] (10^−6 M, KCl-contracted, n = 6) is reported as “not significantly different to the effect S2”. Also, the “reversal of KCl-induced cardiac stomach contraction” value in assay [3] (10^−6 M, contraction induced by 30 mM KCl = 100%, artificial seawater, approximately 11°C, mean ± s.e.m., n = 10) came out at 60 ± 18%. For the same sequence, the “magnitude of cardiac stomach relaxing action relative to S2” value in assay [3] (setting [6]) is 1.5 times the effect of S2. Also, in assay [3] (setting [6]), the “magnitude of cardiac stomach relaxing action relative to asterotocin” value was 44 % of the effect of asterotocin. For the same sequence, the “relaxing effect compared with S2” value in assay [3] (10^−7 M, two-tailed Student's t-test p = 0.0303, n = 6) is “significantly larger than the effect of S2”. In addition, the “relaxation of cardiac stomach preparations” value in assay [3] (pre-contracted with 30 mM KCl, tested 10^−10 to 10^−6 M) was “dose-dependent relaxation of cardiac stomach preparations at concentrations between 10^−9 and 10^−6 M”. In addition, the “reversal of ACh-induced tube foot contraction” value in assay [4] (10^−6 M, contraction induced by 10^−6 M acetylcholine = 100%, artificial seawater, approximately 11°C, mean ± s.e.m., n = 6) was 91% ± 13%. Besides, in assay [4] (pre-contracted with 10^−6 M ACh, tested 10^−10 to 10^−6 M), the “relaxation of tube foot preparations” value was “dose-dependent relaxation of tube foot preparations at concentrations between 10^−9 and 10^−6 M”.
